Literature values in patent US5993850A, “Preparation of multivesicular liposomes for controlled release of encapsulated biologically active substances” (priority 1994, dated 1999).

System: strains of both gram negative and gram positive bacteria
Settings: background statement; cited from earlier work

## NCC[C@H](O)C(=O)N[C@@H]1C[C@H](N)[C@@H](O[C@H]2O[C@H](CN)[C@@H](O)[C@H](O)[C@H]2O)[C@H](O)[C@H]1O[C@H]1O[C@H](CO)[C@@H](O)[C@H](N)[C@H]1O [amikacin]
  antibacterial activity: clinically significant activity against strains of both gram negative and gram positive bacteria
